According to ChEMBL document CHEMBL5104173, “Combining monoamine oxidase B and semicarbazide-sensitive amine oxidase enzyme inhibition to address inflammatory disease” (Bioorg Med Chem Lett, 2022):

Assays:
[1] = biological target: T1, Amine oxidase [flavin-containing] B (Homo sapiens, UniProt P27338); assay: Inhibition of human recombinant MAO-B
T1 sequence (P27338 whole entry): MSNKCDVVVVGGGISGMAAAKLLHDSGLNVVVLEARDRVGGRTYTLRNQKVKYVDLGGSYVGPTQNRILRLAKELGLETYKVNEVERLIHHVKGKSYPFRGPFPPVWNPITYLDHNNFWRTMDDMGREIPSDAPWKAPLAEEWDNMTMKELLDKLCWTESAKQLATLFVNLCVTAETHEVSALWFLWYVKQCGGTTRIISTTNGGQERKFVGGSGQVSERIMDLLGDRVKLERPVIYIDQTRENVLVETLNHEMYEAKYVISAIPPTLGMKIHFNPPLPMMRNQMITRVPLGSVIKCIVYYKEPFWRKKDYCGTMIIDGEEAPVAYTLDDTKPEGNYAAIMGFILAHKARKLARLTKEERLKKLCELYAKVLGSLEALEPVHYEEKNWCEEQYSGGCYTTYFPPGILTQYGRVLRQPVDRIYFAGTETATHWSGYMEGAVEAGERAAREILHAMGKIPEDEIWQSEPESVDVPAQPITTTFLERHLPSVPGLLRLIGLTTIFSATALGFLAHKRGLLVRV

[2] = biological target: T2, Amine oxidase [flavin-containing] A (Homo sapiens, UniProt P21397); assay: Inhibition of human recombinant MAO-A
T2 sequence (P21397 whole entry): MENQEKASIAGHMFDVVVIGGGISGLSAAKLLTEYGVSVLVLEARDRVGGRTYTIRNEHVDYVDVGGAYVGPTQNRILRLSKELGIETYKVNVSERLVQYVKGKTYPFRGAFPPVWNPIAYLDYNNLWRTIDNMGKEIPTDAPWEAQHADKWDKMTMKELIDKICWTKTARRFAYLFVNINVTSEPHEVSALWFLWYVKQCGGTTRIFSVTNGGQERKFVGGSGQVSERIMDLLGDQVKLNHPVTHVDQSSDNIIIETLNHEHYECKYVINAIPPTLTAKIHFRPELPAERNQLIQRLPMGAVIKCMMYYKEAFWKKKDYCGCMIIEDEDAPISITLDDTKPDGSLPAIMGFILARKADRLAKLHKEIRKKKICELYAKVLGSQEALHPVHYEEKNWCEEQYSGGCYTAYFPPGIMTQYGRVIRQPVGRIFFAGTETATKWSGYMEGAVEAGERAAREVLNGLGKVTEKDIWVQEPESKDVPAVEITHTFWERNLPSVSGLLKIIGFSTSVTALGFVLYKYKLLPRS

[3] = biological target: recombinant human DAO (diamine oxidase) (Homo sapiens, UniProt P19801); assay: Inhibition of human recombinant DAO
[4] = Permeability in MDCK-MDR1 cells; assay type: ADME, cell-based, Canis lupus familiaris; conditions: dog

Structure (SMILES): NC/C(=C\F)COc1ccccc1
- IC50 [1]: 13 nM
- IC50 [2]: 4000 nM
- IC50 [3]: > 30000 nM

Structure (SMILES): NCC(=CF)COc1ccccc1 (mixture of isomers)
- IC50 [1]: 9 nM
- IC50 [2]: 2500 nM
- IC50 [3]: 1600 nM

Structure (SMILES): Cl.NC/C(=C\F)[C@@H]1Cc2ccccc2O1
- IC50 [2]: 750 nM
- IC50 [3]: > 30000 nM
- permeability [4]: Permeable

Structure (SMILES): Cc1ccccc1OC/C(=C/F)CN
- IC50 [1]: 3 nM
- IC50 [2]: 160 nM
- IC50 [3]: > 30000 nM

Structure (SMILES): NC/C(=C/F)[C@H]1Cc2ccccc2O1
- IC50 [2]: 6800 nM
- IC50 [3]: > 30000 nM
